Assay results published in the NIST ThermoML archive (doi:10.1016/j.jct.2019.03.014).

Legend:
[1] = xn = mol fraction of the nth substance listed; details: Ring tensiometer
[2] = Ring tensiometer

OCC(O)CO [glycerol] + CCCO
surface tension liquid-gas [mN/m], [1]
Details	x2 = 0	x2 = 0.1	x2 = 0.2	x2 = 0.3	x2 = 0.4	x2 = 0.5	x2 = 0.6	x2 = 0.7	x2 = 0.8	x2 = 0.9
293.2 K	63.1	41.8	33.4	30.1	28.3	27.3	26.5	26	25.3	24.7
303.2 K	62.4	41.5	33.1	29.7	27.9	26.9	26.1	25.5	24.8	24.1
313.2 K	62	41.2	32.8	29.3	27.7	26.4	25.7	25	24.2	23.3
323.2 K	61.1	40.9	32.5	28.9	27.2	26	25.3	24.5	23.6	22.5
333.2 K	60.5	40.5	32.2	28.5	26.6	25.6	25	24	23	21.6

OCC(O)CO [glycerol] + CC(C)O
surface tension liquid-gas [mN/m], [1]
Details	x2 = 0	x2 = 0.1	x2 = 0.2	x2 = 0.3	x2 = 0.4	x2 = 0.5	x2 = 0.6	x2 = 0.7	x2 = 0.8	x2 = 0.9
293.2 K	63.1	45.7	34.3	28.8	26.7	25.6	24.8	23.9	22.8	21.9
303.2 K	62.4	45.1	34	28.5	26.2	25.1	24.2	23.4	22.3	21.4
313.2 K	62	44.4	33.6	28	25.8	24.6	23.7	23	21.8	20.9
323.2 K	61.1	43.9	32.9	27.6	25.5	24.1	23.5	22.5	21.2	20
333.2 K	60.5	43.2	32.2	27.2	25	23.7	22.6	22.1	20.6	19.1

CCCCO [butan-1-ol]
[2]
Details	surface tension liquid-gas [mN/m]
293.2 K	24.7
303.2 K	23.8
313.2 K	22.8
323.2 K	21.6
333.2 K	20.3

CC(C)O [propan-2-ol] + OCC(O)CO
[1], x1 = 1
Details	surface tension liquid-gas [mN/m]
293.2 K	21.4
303.2 K	20.7
313.2 K	19.7
323.2 K	18.7
333.2 K	17.6

CC(C)O [propan-2-ol]
[2]
Details	surface tension liquid-gas [mN/m]
293.2 K	21.4
303.2 K	20.7
313.2 K	19.7
323.2 K	18.7
333.2 K	17.6

CCCO [propan-1-ol]
[2]
Details	surface tension liquid-gas [mN/m]
293.2 K	23.7
303.2 K	22.9
313.2 K	22.1
323.2 K	21.3
333.2 K	20.6

CCO [ethanol] + OCC(O)CO
[1], x1 = 1
Details	surface tension liquid-gas [mN/m]
293.2 K	22.3
303.2 K	21.4
313.2 K	20.6
323.2 K	19.8
333.2 K	19

CCCCO [butan-1-ol] + OCC(O)CO
[1], x1 = 1
Details	surface tension liquid-gas [mN/m]
293.2 K	24.7
303.2 K	23.8
313.2 K	22.8
323.2 K	21.6
333.2 K	20.3

OCC(O)CO [glycerol]
[2]
Details	surface tension liquid-gas [mN/m]
293.2 K	63.1
298.2 K	62.9
303.2 K	62.4
313.2 K	62
323.2 K	61.1
333.2 K	60.5

CCO [ethanol]
[2]
Details	surface tension liquid-gas [mN/m]
293.2 K	22.3
303.2 K	21.4
313.2 K	20.6
323.2 K	19.8
333.2 K	19

OCC(O)CO [glycerol] + CCO
surface tension liquid-gas [mN/m], [1]
Details	x2 = 0	x2 = 0.1	x2 = 0.2	x2 = 0.3	x2 = 0.4	x2 = 0.5	x2 = 0.6	x2 = 0.7	x2 = 0.8	x2 = 0.9
293.2 K	63.1	52.9	41.7	36.1	31.9	29	27.5	26.2	24.9	23.7
303.2 K	62.4	52.4	41.4	35.9	31.6	28.5	27.1	25.4	24.2	23.2
313.2 K	62	52	41.1	35.7	31.2	27.9	26.7	24.5	23.5	22.6
323.2 K	61.1	51.5	40.7	35.4	30.9	27.7	26.3	23.6	22.8	22
333.2 K	60.5	51.1	40.5	35	30.6	27.2	25.9	22.7	22.1	21.2

OCC(O)CO [glycerol] + CCCCO
surface tension liquid-gas [mN/m], [1]
Details	x2 = 0	x2 = 0.1	x2 = 0.2	x2 = 0.3	x2 = 0.4	x2 = 0.5	x2 = 0.6	x2 = 0.7	x2 = 0.8	x2 = 0.9
293.2 K	63.1	33.1	28	26.4	26.2	25.9	25.7	25.4	25.2	24.8
303.2 K	62.4	32.9	27.7	26.2	26	25.7	25.4	25.1	24.8	24.3
313.2 K	62	32.8	27.3	26.1	25.8	25.5	25.1	24.8	24.5	23.7
323.2 K	61.1	32.7	27	25.6	25.2	24.7	24.3	24	23.7	22.7
333.2 K	60.5	32.5	26.7	25.3	24.8	24.3	23.7	23.2	22.9	21.6

CCCO [propan-1-ol] + OCC(O)CO
[1], x1 = 1
Details	surface tension liquid-gas [mN/m]
293.2 K	23.7
303.2 K	22.9
313.2 K	22.1
323.2 K	21.3
333.2 K	20.6
